# Experimental data as given in patent US20230039836A1, “AROMATIC SULPHONAMIDES DERIVATIVES THAT INHIBITS PDI A3, THEIR SYNTHESIS AND USE” (Uniwersytet Jagiellonski, priority 2020, published 2023).
# Where two headings read alike, the source gives them in different places.
# Key:
# [1] = tested on: MDA-MB-231 (human mammary breast adenocarcinoma); assay: MTT antiproliferative assay, 48 h; format: cell-based; details: for IC50: Homo sapiens, MDA-MB-231, 48-hour exposition, read-out: Cytotoxicity, IC50, µM MDA-MB-231
# Description: (§1) About 2000-4000 cells per well (depending on line nature) were placed in 96-well plates and after 24 h compounds were added to the wells. Untreated cells were used as a control. The plates were incubated for 48 h, 37° C., 5% CO2. The number of surviving cells was determined using 3-(4,5-dimethylthiazol-2-yl)-2,5-diphenyltetrazolinium bromide (MTT). MTT-test: after incubating culture medium was removed and 200 µL fresh medium with 20 µL MTT (2 mg/mL in HBSS) was added in each well of the plate. After incubation (3 hr., 37° C., 5% CO2), the medium with MTT was removed and 200 µL DMSO were added at once to each sample. The samples were tested at 540 nm on Thermo Scientific Multiskan EX microplate photometer. The half-maximal inhibitory concentration (IC50) of each compound was calculated using Graph Pad Prism® 3.0.
# [2] = tested on: Caco-2 (human colon adenocarcinoma); assay: MTT antiproliferative assay, 48 h; format: cell-based; details: for IC50: Homo sapiens, Caco-2, 48-hour exposition, read-out: Cytotoxicity, IC50, µM CaCo-2
# Description: as §1
# [3] = tested on: MCF-7 (human breast adenocarcinoma, estrogen-positive); assay: MTT antiproliferative assay, 48 h; format: cell-based; details: for IC50: Homo sapiens, MCF7, 48-hour exposition, read-out: Cytotoxicity, IC50, µM MCF-7
# Description: as §1
# [4] = tested on: HT-1080 (human fibrosarcoma); assay: MTT antiproliferative assay, 48 h; format: cell-based; details: 48-hour exposition, read-out: Cytotoxicity, IC50, µM HT-1080
# Description: as §1
# PDI A1 = target: T1, PDI A1 (Homo sapiens, UniProt P07237); assay: Insulin turbidometric assay, inhibition of PDI A1; format: biochemical; details: insulin reduction, turbidity at 650 nm, 60 min incubation at 37° C.; read-out: Inhibition of PDI A1 (EC 50)
# T1 construct: purchased Mybiosource; host or cells: E. coli
# Description: The inhibitory effects compounds of invention on activity of PDI A1 was assess based on the insulin turbidometric assay. Enzymatic activity of PDIA1 was confirmed by measuring the turbidity increase at 650 nm due to insulin reduction. The assay mixture was prepared by addition 10 ug/ml PDIA1 (E.coli recombinant protein; Mybiosource), 0.1 mM phosphate buffer (pH7.6), 1 mM EDTA, 0.087 mM DTT and with or without tested compound and was incubated for 60 min, at 37° C. Reaction was started by addition insulin and DTT. Final concentration of insulin and DTT in assay mixture was 0.15 mM and 0.174 mM, respectively. Turbidity was detected at 650 nm against reference samples without PDI A1s. The measurements were performed at 650 nm using 120-s recordings.
# HL-60 = assay: MTT antiproliferative assay, 72 h; format: cell-based; details: Homo sapiens, 72 hours exposition, read-out: IC50 [µg/ml] HL-60 normal
# Description: (§2) Anticancer activity of PDI A1-inhibitors has been also tested in vitro in antiproliferative essay in normoxic and hypoxic conditions as well in estrogen-stimulated cancer cells. In the experiment, cells were seeded on 96-well plates (Sarstedt, Germany) in appropriate culture medium at a density of 10^5 cells/mL 24 h before adding the tested compounds. Cells were treated with each compound in four concentrations in the range 0.1-100 ug/mL. […] After 72 h of compound treatment at 37° C., 5 % CO2 humid atmosphere and in wo different oxygen level conditions: 21% - normal and <1% - hypoxia. In some experiments, the MDA-MB-231 and MCF-7 cells were seeded with or without 200 nM estradiol and after 24 h the tested compounds were added. A previously described sulforhodamine B antiproliferative assay was used with minor modifications (Skehan P et al., 1990). Briefly, cells were fixed with 50 µL/well of 50% (w/v) trichloroacetic acid (Avantor Performance Materials, Gliwice, Poland). After 1 h incubation, plates were washed several times with tap water and 50 µL of 0.4% (w/v) solution of sulforhodamine B (Sigma-Aldrich, Germany) in 1% (v/v) acetic acid (Avantor Performance Materials, Gliwice, Poland) was added to each well. After 30 min incubation at room temperature, unbound dye was washed out with 1% (v/v) acetic acid, whereas bound dye was solubilized with 10 mM unbuffered TRIS (Avantor Performance Materials, Gliwice, Poland) solution. The entire procedure was performed using a BioTek EL-406 washing station (BioTek Instruments, USA). After additional 30 min, absorbance was read using a Biotek Hybrid H4 reader (BioTek Instruments, USA) at 540 nm wavelength. MTT assay was used alternatively for HL-60 cell line and in the experiment in which estrogens are added (specified in the table legend). Absorbance was measured using a Biotek Hybrid H4 reader at 570 nm wavelength for MTT assay.
# (§3) Compounds at each concentration were tested in triplicate in a single experiment and each experiment was repeated at least three times independently.
# (§4) Results of in vitro antiproliferative effects are shown in Table 3 and Table 4 and are presented as mean IC50 ± SD calculated using the Prolab-3 system based on Cheburator 0.4 software.
# (§5) Statistical analysis: Unpaired t test. *p<0.05 as compared to appropriate cells not pretreated with estradiol. MTT assay was used for antiproliferative activity assessment.
# HT-29 [5] = assay: MTT antiproliferative assay, 72 h; format: cell-based; details: Homo sapiens, 72 hours exposition, read-out: IC50 [µg/ml] HT-29 normal
# Description: as §2, §3, §4, §5
# MCF-7 [6] = assay: MTT antiproliferative assay, 72 h, with or without estradiol; format: cell-based, human; details: 72 hours exposition; for IC50: Homo sapiens, MCF7, MTT
# Description: as §2, §3, §4, §5
# MDA-MB-231 [7] = assay: as above; format: cell-based, human; details: for IC50: Homo sapiens, MDA-MB-231, 72 hours exposition, MTT
# Description: as §2, §3, §4, §5
# HT-29 [8] = assay: Sulforhodamine B antiproliferative assay, 72 h; format: cell-based, human; details: normal (21% of oxygen), 72-hour exposition
# Description: as §2, §3, §4
# MCF-7 [9] = assay: Sulforhodamine B antiproliferative assay, 72 h, normal and hypoxia; format: cell-based, human; details: 72-hour exposition
# Description: as §2, §3, §4
# MDA-MB-231 [10] = assay: as above; format: cell-based, human; details: 72-hour exposition
# Description: as §2, §3, §4
# [11] = 200 nM estradiol, read-out: IC50 [µg/ml] MCF-7 + estradiol
# [12] = not pretreated with estradiol, read-out: IC50 [µg/ml] MCF-7 normal
# [13] = 200 nM estradiol, read-out: IC50 [µg/ml] MDA-MB-231 + estradiol
# [14] = not pretreated with estradiol, read-out: IC50 [µg/ml] MDA-MB-231 normal
# T1 sequence (P07237 18-508, species assumed): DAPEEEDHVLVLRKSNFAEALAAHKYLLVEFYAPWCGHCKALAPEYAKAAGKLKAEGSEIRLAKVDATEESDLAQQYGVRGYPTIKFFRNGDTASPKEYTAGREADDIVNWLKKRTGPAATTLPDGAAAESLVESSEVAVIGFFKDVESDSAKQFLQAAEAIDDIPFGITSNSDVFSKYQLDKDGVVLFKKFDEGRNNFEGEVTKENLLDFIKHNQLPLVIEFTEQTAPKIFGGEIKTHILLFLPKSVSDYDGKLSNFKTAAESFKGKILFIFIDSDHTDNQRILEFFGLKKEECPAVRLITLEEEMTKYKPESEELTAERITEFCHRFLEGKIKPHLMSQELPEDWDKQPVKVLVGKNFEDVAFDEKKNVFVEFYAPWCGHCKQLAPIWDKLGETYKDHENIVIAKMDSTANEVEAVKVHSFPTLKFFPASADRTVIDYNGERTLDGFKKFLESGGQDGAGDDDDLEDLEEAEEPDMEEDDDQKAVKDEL
SMILES,IC50 [1],IC50 [2],IC50 [3],IC50 [4],melting point,EC50 (PDI A1),other results
"CNc1ccc2cc(S(=O)(=O)N3CC3C(=O)OC)ccc2c1Cl (centres unmarked) [Compound C-3393, Methyl 1-[[5-chloro-6-(methylamino)-2-naphthyl]sulfonyl]aziridine-2-carboxylate]",32 ± 4 µM,35 ± 1 µM,29 ± 3 µM,0.46 ± 0.04 µM,170 to 172 °C,0.34 µM,
"NC(=O)C1CN1S(=O)(=O)c1ccc(N)cc1 (centres unmarked) [Compound C-3218, 1-(4-Aminophenyl)sulfonylaziridine-2-carboxamide]",64 ± 5 µM,200 ± 1 µM,137 ± 14 µM,200 ± 3 µM,139 to 141 °C,> 200 µM,
"CCCCCCc1ccc(S(=O)(=O)N2CC2C(=O)OC)cc1 (centres unmarked) [Compound C-3287, Methyl 1-(4-hexylphenyl)sulfonylaziridine-2-carboxylate]",,,123 ± 17 µM,,,0.05 µM,IC50 (HL-60): 0.5 ± 0.3 µg/mL; IC50 (HT-29 [5]): 31.5 ± 4.9 µg/mL; Selectivity index (SI): IC50 of MCF-10A/ IC50 of MCF-7 (MCF-7 [6]): 1.10; IC50 (MCF-7 [6]; [11]): 29.3 ± 4.1 µg/mL; IC50 (MCF-7 [6]; [12]): 31.3 ± 0.6 µg/mL; IC50 (MDA-MB-231 [7]; [13]): 23.8 ± 2.3 µg/mL; IC50 (MDA-MB-231 [7]; [14]): 6.4 ± 0.8 µg/mL; Change of antiproliferative activity towards MDA-MB-231 during simultaneous incubation with estradiol (MDA-MB-231 [7]; with estradiol versus without): slight decrease of antiproliferative activity
"COC(=O)C1CN1S(=O)(=O)c1ccc(F)cc1F (centres unmarked) [Compound C-3353, Methyl 1-(2,4-difluorophenyl)sulfonylaziridine-2-carboxylate]",,,,,,5 µM,IC50 (HL-60): 2 ± 0.1 µg/mL; IC50 (HT-29 [5]): 35.9 ± 1.3 µg/mL; Selectivity index (SI): IC50 of MCF-10A/ IC50 of MCF-7 (MCF-7 [6]): 3.36; IC50 (MCF-7 [6]; [11]): 5.8 ± 1.3 µg/mL; IC50 (MCF-7 [6]; [12]): 6.2 ± 1.8 µg/mL; IC50 (MDA-MB-231 [7]; [13]): 25.7 ± 1.9 µg/mL; IC50 (MDA-MB-231 [7]; [14]): 24.2 ± 2.6 µg/mL
"COC(=O)C1CN1S(=O)(=O)c1ccc([N+](=O)[O-])cc1 (centres unmarked) [Compound C-3212, Methyl 1-(4-nitrophenyl)sulfonylaziridine-2-carboxylate]",,,,,106 to 108 °C,34 µM,
"COC(=O)C1CN1S(=O)(=O)c1ccc2oc(=O)ccc2c1 (centres unmarked) [Compound C-3355, Methyl 1-(2-oxochromen-6-yl)sulfonylaziridine-2-carboxylate]",247 ± 14 µM,39 ± 1 µM,276 ± 9 µM,20 ± 1 µM,42 to 44 °C,7.7 µM,
"COC(=O)[C@H]1CN1S(=O)(=O)c1cccc2cc(N(C)C)ccc12 (stereo partly drawn) [Compound C-3570, Methyl (2R)-1-[[6-(dimethylamino)-1-naphthyl]sulfonyl]aziridine-2-carboxylate]",14 ± 3 µM,13 ± 1 µM,29 ± 2 µM,12 ± 1 µM,,11 µM,
"CCCCc1ccc(S(=O)(=O)N2CC2C(C)=O)cc1 (centres unmarked) [Compound C-3272, 1-[1-(4-Butylphenyl)sulfonylaziridin-2-yl] ethanone]",8.4 ± 0.9 µM,57 ± 6 µM,26 ± 0.4 µM,4.5 ± 0.9 µM,,0.5 µM,
"CCCCc1ccc(S(=O)(=O)N2CC2C=O)cc1 (centres unmarked) [Compound C-3273, 1-(4-Butylphenyl)sulfonylaziridine-2-carbaldehyde]",35 ± 3 µM,56 ± 12 µM,92 ± 2 µM,31 ± 0.9 µM,,3 µM,
"CCCCCCc1ccc(S(=O)(=O)N2CC2C(=O)NC)cc1 (centres unmarked) [Compound C-3380, 1-(4-Hexylphenyl)sulfonyl-N-methyl-aziridine-2-carboxamide]",,,,,,,IC50 (HL-60): 5.3 ± 2.8 µg/mL; IC50 (HT-29 [5]): 34.6 ± 2.2 µg/mL; Selectivity index (SI): IC50 of MCF-10A/ IC50 of MCF-7 (MCF-7 [6]): 0.75; IC50 (MCF-7 [6]; [11]): 26.3 ± 4.3 µg/mL; IC50 (MCF-7 [6]; [12]): 25.5 ± 2.3 µg/mL; IC50 (MDA-MB-231 [7]; [13]): 26.3 ± 2.5 µg/mL; IC50 (MDA-MB-231 [7]; [14]): 26.1 ± 1 µg/mL
"COC(=O)[C@@H]1CN1S(=O)(=O)c1ccc(C)cc1 (stereo partly drawn) [Compound C-3535, Methyl (2S)-1-(p-tolylsulfonyl)aziridine-2-carboxylate]",107 ± 11 µM,35 ± 7 µM,81 µM,84 ± 3 µM,,11.2 µM,
"NC(=O)C1CN1S(=O)(=O)c1cccnc1 (centres unmarked) [Compound C-3562, 1-(3-pyridylsulfonyl)aziridine-2-carboxamide]",24 ± 2 µM,36 ± 6 µM,57 ± 5 µM,31 ± 2 µM,147 to 149 °C,29 µM,
"COC(=O)C1CN1S(=O)(=O)c1ccc2[nH]c(=O)ccc2c1 (centres unmarked) [Compound C-3350, Methyl 1-[(2-oxo-1H-quinolin-6-yl)sulfonyl]aziridine-2-carboxylate]",136 ± 6 µM,49 ± 5 µM,80 ± 8 µM,16 ± 5 µM,139 to 141 °C,5.5 µM,
"COC(=O)C1CN1S(=O)(=O)c1ccc2c(C=O)c(N(C)C)ccc2c1 (centres unmarked) [Compound C-3390, Methyl 1-[[6-(dimethylamino)-5-formyl-2-naphthyl]sulfonyl]aziridine-2-carboxylate]",18 ± 0.1 µM,11 ± 2 µM,20 ± 0.3 µM,7.9 ± 0.9 µM,,0.6 µM,
"CN(C)c1ccc2c(S(=O)(=O)N3CC3C(N)=O)cccc2c1 (centres unmarked) [Compound C-3459, 1-[[6-(Dimethylamino)-1-naphthyl]sulfonyl]aziridine-2-carboxamide]",,,,> 500 µM,197 to 199 °C,33 µM,"Cytotoxicity, IC50, µM MDA-MB-231 ([1]; 48-hour exposition): n.e.; Cytotoxicity, IC50, µM CaCo-2 ([2]; 48-hour exposition): n.e.; Cytotoxicity, IC50, µM MCF-7 ([3]; 48-hour exposition): n.e."
"Cc1ccc(S(=O)(=O)N2CC2C#N)cc1 (centres unmarked) [Compound C-3314, 1-(p-Tolylsulfonyl)aziridine-2-carbonitrile]",104 ± 3 µM,14 ± 0.8 µM,206 ± 21 µM,4.5 ± 1 µM,,4.1 µM,
"N.N.[Cl][Pt][Cl] [Cisplatin, reference compound]",,,,,,,IC50 [µg/ml] HT-29 normal (HT-29 [8]): 2.82 ± 0.6 µg/mL; IC50 [µg/ml] MCF-7 hypoxia (MCF-7 [9]; hypoxia (<1% of oxygen)): 1.3 ± 0.5 µg/mL; IC50 [µg/ml] MCF-7 normal (MCF-7 [9]; normal (21% of oxygen)): 1.8 ± 0.3 µg/mL; IC50 [µg/ml] MDA-MB-231 hypoxia (MDA-MB-231 [10]; hypoxia (<1% of oxygen)): 3.1 ± 0.9 µg/mL; IC50 [µg/ml] MDA-MB-231 normal (MDA-MB-231 [10]; normal (21% of oxygen)): 3.2 ± 0.5 µg/mL
